According to BindingDB's records for doi:10.1016/j.bmcl.2007.12.038 (St. Jude Children'S Research Hospital, 2008):

What was measured:
[1] = Binding affinity to GST tagged human beta 2 adrenergic receptor PDZ1 domain
[2] = Binding affinity to GST tagged human CFTR PDZ2 domain

IC50 [1] [µM] | IC50 [2] [µM] | Structure (SMILES)
1540 | 160 | CCCCC(O)c1[nH]c2cc(C)c(C(=O)O)cc2c1CCc1ccccc1 (stereo unspecified) [2-(1-hydroxypentyl)-6-methyl-3-phenethyl-1H-indole-5-carboxylic acid]
777 | 330 | Cc1cc2[nH]c(C(O)CCCC(=O)O)c(CCc3ccccc3)c2cc1C(=O)O (stereo unspecified) [2-(4-carboxy-1-hydroxybutyl)-6-methyl-3-phenethyl-1H-indole-5-carboxylic acid]
280 | 380 | CCCCCc1c(CO)c2cc(C)c(C(=O)O)cc2n1CCc1ccccc1 [3-(hydroxymethyl)-5-methyl-2-pentyl-1-phenethyl-1H-indole-6-carboxylic acid]
